From PMC6248945, “Antibacterial properties of the pituitary adenylate cyclase-activating polypeptide: A new human antimicrobial peptide” (PLoS ONE, 2018)
Converted amounts (≈) assume the structure as drawn. Read-outs that look alike come from different tables or passages of the source. Where a SMILES comes first, the peptide text is derived from it.

Assays:
[1] = tested on: Burkholderia cenocepacia (K56-2); settings: 20 h
[2] = tested on: Serratia marcescens (ATCC14756); settings: ATCC14756, 20 h
[3] = tested on: Bacillus circulans (LSPQ3543); settings: 20 h
[4] = tested on: Pseudomonas putida (KT2440); settings: 20 h
[5] = tested on: Burkholderia thailendensis (ATCC700388); settings: CLSI microdilution, MHB, 37 °C, 20h, OD read-out; at least triplicate
[6] = tested on: Burkholderia cenocepacia (LMG18829); settings: LMG18829, 20 h
Bacillus velezensis = settings: 20 h
[7] = tested on: Escherichia coli ATCC25922; settings: ATCC25922, 20 h
[8] = tested on: Bacillus amyloliquefaciens (LMG22478); settings: LMG22478, 20 h
Bacillus subtilis (2597) = settings: 2597, 20 h
[9] = tested on: Staphylococcus aureus (Newman); settings: 20 h
Red blood cells = experiment: Haemolytic activity; assay type: cell-based; settings: human red blood cells in PBS, 30 min or 3h, 37°C; at 45 μg/mL (PACAP38) or 37 μg/mL (PACAP(9–38)); absorbance 545 nm; 3 independent experiments in triplicate
Method: All experimental procedures were performed in accordance with regulations and ethical guidelines and approved by the institutional committee of the Institut National de la Recherche Scientifique-Institut Armand-Frappier. Blood from healthy human volunteers was collected into sodium citrate-buffered vacutainers. Blood donations were obtained from informed and consenting individuals according to institutionally approved procedures. Red blood cells were pelleted (700 x g; 10 min), washed three times with 9 volumes of PBS by centrifugation (700 x g; 10 min), and then resuspended in PBS. […] PBS-incubated red blood cells were considered as negative control and maximum lysis of erythrocytes was obtained by incubating the cells with 0.1% (v/v) Triton X-100. At the end of the incubation period, cells were pelleted (700 x g, 10 min) and 100 μL of each supernatant was used to evaluate the release of hemoglobin by measuring the absorbance at 545 nm. Results were obtained from 3 independent experiments performed in triplicate.

[10] = tested on: Pseudomonas aeruginosa (PA14); settings: PA14, 20 h
[11] = tested on: Bacillus cereus (ATCC11778); settings: ATCC11778, 20 h
[12] = tested on: Burkholderia cenocepacia (CEP0511 Gvar3b); settings: CLSI microdilution, MHB, 37 °C, 20h, OD read-out; at least triplicate
[13] = tested on: Actinobacillus pleuropneumoniae (4074); settings: 20 h
Escherichia coli (JM109) = experiment: MIC, CLSI microdilution; assay type: cell-based; settings: MHB, 37 °C, 20h, OD read-out, at least triplicate
[14] = tested on: Burkholderia cenocepacia (LMG19240); settings: CLSI microdilution, MHB, 37 °C, 20h, OD read-out; at least triplicate
Bacillus subtilis (PY79) = settings: PY79, 20 h
[15] = tested on: Burkholderia cenocepacia (J2315); settings: 20 h
[16] = tested on: Pseudomonas fluorescens (MF37); settings: 20 h
[17] = tested on: Escherichia coli (O157 :H7); settings: CLSI microdilution, MHB, 37 °C, 20h, OD read-out; at least triplicate
[18] = tested on: Staphylococcus aureus (ATCC6538#P); settings: ATCC6538, 20 h
[19] = tested on: Pseudomonas aeruginosa (ATCC33350-Sero-2); settings: ATCC33350, 20 h
[20] = tested on: various bacterial strains; settings: CLSI microdilution
human PAC1 receptor = target: T1, human PAC1 receptor (Homo sapiens, UniProt P41586); experiment: Radioligand binding assay, 125I-Ac-PACAP27
T1 construct: expressed in transfected cells

human VPAC2 receptor = target: T2, human VPAC2 receptor (Homo sapiens, UniProt P41587); experiment: Radioligand binding assay, 125I-Ac-PACAP27; settings: CHO cells expressing human VPAC2, 0.05 nM 125I-Ac-PACAP27, 2h, room temperature
T2 construct: expressed in transfected cells
Method: (§1) Chinese hamster ovary (CHO) cells stably and individually expressing human receptor PAC1, VPAC1 or VPAC2 were grown in Ham’s F12 medium supplemented with 10% of fetal bovine serum (FBS), 2 mM L-glutamine, 100 UI/mL of penicillin and streptomycin (P/S) and 400 μg/mL of G418. The cell line was maintained at 37 °C in a humidified atmosphere of 5% CO2 and passages were performed by trypsinization when cells reached about 80% confluence.
(§2) Acetylated PACAP27 was radioiodinated using the chloramine-T oxidation technique and purified on a Sep-Pak C18 cartridge (Waters, Milford, MA, USA). Binding assays were performed using CHO cells stably transfected with the human PAC1, VPAC1 or VPAC2 receptor isoform. Cells were seeded at a density of 150,000 cells/well in 24-well plates. The next day, cells were washed with binding buffer (0.1% BSA, 25 mM Tris–HCl, 25 mM MgCl2, pH 7.4) for 10 min at room temperature. The solution was replaced with a fresh solution containing 0.05 nM of ^125I-Ac-PACAP27 and increasing concentrations of peptide (10^−14 to 10^-5M). After 2h of incubation at room temperature, cells were washed twice with the binding buffer and then lysed with sodium hydroxide (0.1 M). Cell-bound radioactivity was quantified using a γ-counter. Results were expressed as percentage of specific binding of ^125I-Ac-PACAP27.

human VPAC1 receptor = target: T3, human VPAC1 receptor (Homo sapiens, UniProt P32241); experiment: Radioligand binding assay, 125I-Ac-PACAP27
T3 construct: expressed in transfected cells
Method: as §1, §2

T3 sequence (P32241 31-457): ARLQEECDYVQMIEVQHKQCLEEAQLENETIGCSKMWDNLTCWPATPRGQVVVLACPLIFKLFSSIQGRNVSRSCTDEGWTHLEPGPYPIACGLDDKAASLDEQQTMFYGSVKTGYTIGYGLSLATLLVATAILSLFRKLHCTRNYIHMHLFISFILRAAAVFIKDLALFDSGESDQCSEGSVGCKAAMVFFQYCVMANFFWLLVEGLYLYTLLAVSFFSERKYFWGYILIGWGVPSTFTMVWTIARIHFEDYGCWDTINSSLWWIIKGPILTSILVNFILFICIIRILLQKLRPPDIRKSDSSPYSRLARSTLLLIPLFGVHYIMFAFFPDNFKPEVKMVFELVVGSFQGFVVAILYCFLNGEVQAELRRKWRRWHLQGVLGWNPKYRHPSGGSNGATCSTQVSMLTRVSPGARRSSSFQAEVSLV
T1 sequence (P41586 21-468): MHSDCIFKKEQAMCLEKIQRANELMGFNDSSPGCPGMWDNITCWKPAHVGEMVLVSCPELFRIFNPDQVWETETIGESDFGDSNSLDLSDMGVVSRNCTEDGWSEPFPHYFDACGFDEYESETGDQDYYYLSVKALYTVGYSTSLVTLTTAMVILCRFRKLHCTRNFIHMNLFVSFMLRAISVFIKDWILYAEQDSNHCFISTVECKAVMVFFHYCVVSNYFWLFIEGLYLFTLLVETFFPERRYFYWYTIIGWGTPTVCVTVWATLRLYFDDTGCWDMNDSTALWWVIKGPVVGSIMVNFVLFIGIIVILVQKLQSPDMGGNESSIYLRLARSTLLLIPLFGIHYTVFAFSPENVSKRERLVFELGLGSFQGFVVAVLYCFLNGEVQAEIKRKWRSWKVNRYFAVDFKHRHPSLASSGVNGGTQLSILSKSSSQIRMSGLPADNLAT
T2 sequence (P41587 24-438): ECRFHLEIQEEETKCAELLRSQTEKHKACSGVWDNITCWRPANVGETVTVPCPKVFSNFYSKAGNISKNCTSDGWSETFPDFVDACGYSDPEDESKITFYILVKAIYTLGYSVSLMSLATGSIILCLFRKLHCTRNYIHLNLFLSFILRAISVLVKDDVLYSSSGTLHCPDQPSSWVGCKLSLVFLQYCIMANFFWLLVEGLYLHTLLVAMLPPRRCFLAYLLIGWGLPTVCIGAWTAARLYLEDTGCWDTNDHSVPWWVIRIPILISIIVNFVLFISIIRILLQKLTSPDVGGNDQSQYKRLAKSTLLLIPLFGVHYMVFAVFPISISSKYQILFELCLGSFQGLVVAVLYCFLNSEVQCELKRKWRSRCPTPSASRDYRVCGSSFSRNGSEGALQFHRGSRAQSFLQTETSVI

| Compound | MIC, Serratia marcescens (ATCC14756) [2] [µg/mL] | MIC, Bacillus circulans (LSPQ3543) [3] [µg/mL] | MIC, Pseudomonas putida (KT2440) [4] [µg/mL] | MIC, Burkholderia thailendensis (ATCC700388) [5] [µg/mL] | MIC, Bacillus velezensis (Bacillus velezensis) [µg/mL] | MIC, Bacillus amyloliquefaciens [8] [µg/mL] | MIC, Staphylococcus aureus (Newman) [9] [µg/mL] | Haemolytic activity (Red blood cells) | MIC, Pseudomonas aeruginosa (PA14) [10] [µg/mL] | MIC, Bacillus cereus (ATCC11778) [11] [µg/mL] | MIC, Actinobacillus pleuropneumoniae [13] [µg/mL] | MIC, Escherichia coli (JM109) (Escherichia coli (JM109)) [µg/mL] | MIC, Bacillus subtilis (PY79) (Bacillus subtilis (PY79)) [µg/mL] | MIC, Burkholderia cenocepacia (J2315) [15] [µg/mL] | MIC, Pseudomonas fluorescens (MF37) [16] [µg/mL] | MIC, Staphylococcus aureus (ATCC6538#P) [18] [µg/mL] | also measured |
| --- | --- | --- | --- | --- | --- | --- | --- | --- | --- | --- | --- | --- | --- | --- | --- | --- | --- |
| CC[C@H](C)[C@H](NC(=O)CNC(=O)[C@H](CC(=O)O)NC(=O)[C@H](CO)NC(=O)[C@@H](N)Cc1cnc[nH]1)C(=O)N[C@@H](Cc1ccccc1)C(=O)N[C@H](C(=O)N[C@@H](CC(=O)O)C(=O)N[C@@H](CO)C(=O)N[C@@H](Cc1ccc(O)cc1)C(=O)N[C@@H](CO)C(=O)N[C@@H](CCCNC(=N)N)C(=O)N[C@@H](Cc1ccc(O)cc1)C(=O)N[C@@H](CCCNC(=N)N)C(=O)N[C@@H](CCCCN)C(=O)N[C@@H](CCC(N)=O)C(=O)N[C@@H](CCSC)C(=O)N[C@@H](C)C(=O)N[C@H](C(=O)N[C@@H](CCCCN)C(=O)N[C@@H](CCCCN)C(=O)N[C@@H](Cc1ccc(O)cc1)C(=O)N[C@@H](CC(C)C)C(=O)N[C@@H](C)C(=O)N[C@@H](C)C(=O)N[C@H](C(=O)N[C@@H](CC(C)C)C(=O)NCC(=O)N[C@@H](CCCCN)C(=O)N[C@@H](CCCNC(=N)N)C(=O)N[C@@H](Cc1ccc(O)cc1)C(=O)N[C@@H](CCCCN)C(=O)N[C@@H](CCC(N)=O)C(=O)N[C@@H](CCCNC(=N)N)C(=O)N[C@H](C(=O)N[C@@H](CCCCN)C(=O)N[C@@H](CC(N)=O)C(=O)N[C@@H](CCCCN)C(N)=O)C(C)C)C(C)C)C(C)C)[C@@H](C)O [compound 1, PACAP38] | >200 | 94 (≈ 20.7 µM) | 113 (≈ 24.9 µM) | >200 | 76 (≈ 16.8 µM) | 42 (≈ 9.26 µM) | >200 | do not exert a very significant haemolytic activity | >200 | >200 | 7.5 (≈ 1.65 µM) | >200 | 28 (≈ 6.18 µM) | 10 (≈ 2.21 µM) | >200 | >200 | MIC, Burkholderia cenocepacia (K56-2) [1]: >200 µg/mL; MIC, Burkholderia cenocepacia (LMG18829) [6]: >200 µg/mL; MIC, Escherichia coli ATCC25922 [7]: >200 µg/mL; MIC, Bacillus subtilis (2597) (Bacillus subtilis (2597)): >200 µg/mL; MIC, Burkholderia cenocepacia (CEP0511 Gvar3b) [12]: >200 µg/mL; MIC, Burkholderia cenocepacia (LMG19240) [14]: >200 µg/mL; MIC, Escherichia coli (O157 :H7) [17]: >200 µg/mL; MIC, Pseudomonas aeruginosa (ATCC33350-Sero-2) [19]: >200 µg/mL |
| CC[C@H](C)[C@H](NC(=O)CNC(=O)[C@H](CC(=O)O)NC(=O)[C@H](CO)NC(=O)[C@@H](N)Cc1c[nH]cn1)C(=O)N1Cc2ccccc2C[C@H]1C(=O)N[C@H](C(=O)N[C@@H](CC(=O)O)C(=O)N[C@@H](CO)C(=O)N[C@@H](Cc1ccc(O)cc1)C(=O)N[C@@H](CO)C(=O)N[C@@H](CCCNC(=N)N)C(=O)N[C@@H](Cc1ccc(O)cc1)C(=O)N[C@@H](CCCNC(=N)N)C(=O)N[C@@H](CCCCN)C(=O)N[C@@H](CCC(N)=O)C(=O)N[C@@H](CCSC)C(=O)N[C@@H](C)C(=O)N[C@H](C(=O)N[C@@H](CCCCN)C(=O)N[C@@H](CCCCN)C(=O)N[C@@H](Cc1ccc(O)cc1)C(=O)N[C@@H](CC(C)C)C(=O)N[C@@H](C)C(=O)N[C@@H](C)C(=O)N[C@H](C(=O)N[C@@H](CC(C)C)C(N)=O)C(C)C)C(C)C)[C@@H](C)O [compound 8, [Tic^6]PACAP27] | >160 | >160 | >160 | >160 | >160 | >160 | >160 | – | >160 | >160 | >160 | >160 | >160 | >160 | >160 | >160 | MIC (ability to reduce bacterial growth, tested strains) [20]: > 160 µg/mL |
| CSCC[C@H](NC(=O)[C@H](CCC(N)=O)NC(=O)[C@H](CCCCN)NC(=O)[C@H](CCCN=C(N)N)NC(=O)[C@H](Cc1ccc(O)cc1)NC(=O)[C@H](CCCN=C(N)N)NC(=O)[C@H](CO)NC(=O)[C@H](Cc1ccc(O)cc1)NC(=O)[C@@H](N)CO)C(=O)N[C@@H](C)C(=O)N[C@H](C(=O)N[C@@H](CCCCN)C(=O)N[C@@H](CCCCN)C(=O)N[C@@H](Cc1ccc(O)cc1)C(=O)N[C@@H](CC(C)C)C(=O)N[C@@H](C)C(=O)N[C@@H](C)C(=O)N[C@H](C(=O)N[C@@H](CC(C)C)C(=O)NCC(=O)N[C@@H](CCCCN)C(=O)N[C@@H](CCCN=C(N)N)C(=O)N[C@@H](Cc1ccc(O)cc1)C(=O)N[C@@H](CCCCN)C(=O)N[C@@H](CCC(N)=O)C(=O)N[C@@H](CCCN=C(N)N)C(=O)N[C@H](C(=O)N[C@@H](CCCCN)C(=O)N[C@@H](CC(N)=O)C(=O)N[C@@H](CCCCN)C(N)=O)C(C)C)C(C)C)C(C)C [compound 10, PACAP(9–38)] (H-SYSRYRKQMAVKKYLAAVLGKRYKQRVKNK-NH2) | – | – | – | – | – | – | – | do not exert a very significant haemolytic activity | – | – | – | – | – | – | – | – | IC50 (human PAC1 receptor): > 1000 nM; IC50 (human PAC1 receptor; PAC1 pIC50, CHO cells expressing human PAC1, 0.05 nM 125I-Ac-PACAP27, 2h, room temperature): 1350 nM; IC50 (human VPAC2 receptor; 95% confidence limits in parentheses): > 1000 nM; IC50 (human VPAC2 receptor; read-out: VPAC2 pIC50 (converted)): 1700 nM; IC50 (human VPAC1 receptor): > 1000 nM; IC50 (human VPAC1 receptor; VPAC1 pIC50, CHO cells expressing human VPAC1, 0.05 nM 125I-Ac-PACAP27, 2h, room temperature): 5130 nM |
